The record followed here is patent US12679807B2 (MERCK SHARP & DOHME LLC, priority 2020, dated 2026).

This assay deals with T1, GCS enzyme contained within Golgi preparations isolated from human A375 malignant melanoma skin cells (Homo sapiens, UniProt Q16739).
T1 construct: endogenous levels of GCS enzyme contained within Golgi preparations isolated from human A375 malignant melanoma skin cells; endogenous in cells; host or cells: A375 human malignant melanoma cells (crude Golgi preparation)
T1 sequence (Q16739 1-394): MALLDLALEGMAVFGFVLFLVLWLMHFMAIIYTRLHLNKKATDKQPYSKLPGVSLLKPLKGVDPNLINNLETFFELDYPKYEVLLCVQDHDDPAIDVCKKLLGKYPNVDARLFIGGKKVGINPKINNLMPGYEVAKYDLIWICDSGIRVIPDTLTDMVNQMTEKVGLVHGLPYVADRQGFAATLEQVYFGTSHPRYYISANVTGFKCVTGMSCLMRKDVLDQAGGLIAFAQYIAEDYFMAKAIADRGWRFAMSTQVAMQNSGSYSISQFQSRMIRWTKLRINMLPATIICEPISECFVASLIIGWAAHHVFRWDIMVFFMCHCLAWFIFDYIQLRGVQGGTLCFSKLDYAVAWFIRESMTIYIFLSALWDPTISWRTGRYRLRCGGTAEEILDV
In words: UDP-Glo glucosylceramide synthase biochemical assay. As to conditions: crude Golgi preparation from A375 cells; C6 ceramide and UDP-glucose substrates; 20 h incubation at room temperature; UDP detected by luminescence. Summed up:
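Endogenous enzyme in A375 Golgi preparations (1.5 μg total protein) was preincubated 30 min with compound, then reacted 20 h at room temperature with UDP-glucose and ceramide.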

Consider `CCOc1ccccc1C(=O)Nc1cccc2c1C(=O)N([C@@H](CO)C(C)C)C2` [Compound 100, (R)-2-ethoxy-N-(2-(1-hydroxy-3-methylbutan-2-yl)-3-oxoisoindolin-4-yl)benzamide], for which the EC50 came out at 150 nM.

In the case of `CCOc1ccccc1C(=O)Nc1cccc2c1C(=O)N([C@@H](CO)C1CC1)C2` [Compound 102, (R)-N-(2-(1-cyclopropyl-2-hydroxyethyl)-3-oxoisoindolin-4-yl)-2-ethoxybenzamide], the midpoint of the response, the EC50, lay at 260 nM.

Consider `CCOc1ccccc1C(=O)Nc1cccc2c1C(=O)N([C@@H]1CCCC[C@@H]1O)C2` [Compound 103, 2-ethoxy-N-(2-((1R,2S)-2-hydroxycyclohexyl)-3-oxoisoindolin-4-yl)benzamide], for which the EC50 was determined as 450 nM.

`CCOc1ccccc1C(=O)Nc1cccc2c1C(=O)N(CC1(O)CCC1)C2` [Compound 105, 2-ethoxy-N-(2-((1-hydroxycyclobutyl)methyl)-3-oxoisoindolin-4-yl)benzamide] registered an EC50 of 650 nM.

As for `CCOc1ccccc1C(=O)Nc1cccc2c1C(=O)N(CC1(O)COC1)C2` [Compound 106, 2-ethoxy-N-(2-((3-hydroxyoxetan-3-yl)methyl)-3-oxoisoindolin-4-yl)benzamide], the response was half-maximal at 720 nM (EC50).

Turning to `O=C(Nc1cccc2c1C(=O)N(C(C1CC1)C1CC1)C2)c1c(Br)ccc2c1OCO2` [Compound 109, 5-Bromo-N-(2-(dicyclopropylmethyl)-3-oxoisoindolin-4-yl)-benzo[d][1,3]dioxole-4-carboxamide], the EC50 amounted to 2 nM.

As for `Cc1cnc2c(c1C(=O)Nc1cccc3c1C(=O)N(C(C1CC1)C1CC1)C3)OCO2` [Compound 117, N-(2-(dicyclopropylmethyl)-3-oxoisoindolin-4-yl)-6-methyl-[1,3]dioxolo[4,5-b]pyridine-7-carboxamide], the midpoint of the response, the EC50, lay at 5.2 nM.

Take `O=C(Nc1cccc2c1C(=O)N(C(C1CC1)C1CC1)C2)c1c(Cl)cnc2c1OCO2` [Compound 118, 6-chloro-N-(2-(dicyclopropylmethyl)-3-oxoisoindolin-4-yl)-[1,3]dioxolo[4,5-b]pyridine-7-carboxamide]: the EC50 was 5.7 nM.

Compound `O=C(Nc1cccc2c1C(=O)N(C(C1CC1)C1CC1)C2)c1ccnc2c1CCC2` [Compound 121, N-(2-(dicyclopropylmethyl)-3-oxoisoindolin-4-yl)-6,7-dihydro-5H-cyclopenta[b]pyridine-4-carboxamide] displayed an EC50 of 15 nM.

Compound `Cc1ccc(Cl)c(C(=O)Nc2cccc3c2C(=O)N([C@@H](CO)C(C)C)C3)c1F` [Compound 122, (R)-6-chloro-2-fluoro-N-(2-(1-hydroxy-3-methylbutan-2-yl)-3-oxoisoindolin-4-yl)-3-methylbenzamide] registered an EC50 of 18 nM.

Regarding `C[C@@H](N1Cc2cccc(NC(=O)c3c(Cl)ccc(F)c3Cl)c2C1=O)C(C)(C)O` [Compound 123, (R)-2,6-dichloro-3-fluoro-N-(2-(3-hydroxy-3-methylbutan-2-yl)-3-oxoisoindolin-4-yl)benzamide], the EC50 stood at 26 nM.

With `CC(C)[C@H](CO)N1Cc2cccc(NC(=O)c3c(Cl)ccc(F)c3Cl)c2C1=O` [Compound 124, (R)-2,6-dichloro-3-fluoro-N-(2-(1-hydroxy-3-methylbutan-2-yl)-3-oxoisoindolin-4-yl)benzamide], a half-maximal effect (EC50) was put at 26 nM.

Consider `CC(C)[C@H](CO)N1Cc2cccc(NC(=O)c3nc(C(F)(F)F)ccc3Cl)c2C1=O` [Compound 125, (R)-3-chloro-N-(2-(1-hydroxy-3-methylbutan-2-yl)-3-oxoisoindolin-4-yl)-6-(trifluoromethyl)picolinamide], for which a half-maximal effect (EC50) was put at 30 nM.

`Cn1ccc2c(C(=O)Nc3cccc4c3C(=O)N(C(C3CC3)C3CC3)C4)cccc21` [Compound 126, N-(2-(dicyclopropylmethyl)-3-oxoisoindolin-4-yl)-1-methyl-1H-indole-4-carboxamide] had an EC50 of 35 nM.

On to `C[C@@H](N1Cc2cccc(NC(=O)c3c(C(F)(F)F)cnc4ccccc34)c2C1=O)C(C)(C)O` [Compound 127, (R)-N-(2-(3-hydroxy-3-methylbutan-2-yl)-3-oxoisoindolin-4-yl)-3-(trifluoromethyl)quinoline-4-carboxamide], for which the EC50 was 38 nM.

For the compound `O=C(Nc1cccc2c1C(=O)N(CC1CC1)C2)c1c2c(nc3ccccc13)CCC2` [Compound 128, N-(2-(cyclopropylmethyl)-3-oxoisoindolin-4-yl)-2,3-dihydro-1H-cyclopenta[b]quinoline-9-carboxamide], the EC50 came to 38 nM.

The compound `C[C@@H](N1Cc2cccc(NC(=O)c3nc(C(F)(F)F)ccc3Cl)c2C1=O)C(C)(C)O` [Compound 129, (R)-3-chloro-N-(2-(3-hydroxy-3-methylbutan-2-yl)-3-oxoisoindolin-4-yl)-6-(trifluoromethyl)picolinamide] gave an EC50 of 38 nM.

`O=C(Nc1cccc2c1C(=O)N(CC1CC1)C2)c1c(C(F)(F)F)cnc2ccccc12` [Compound 130, N-(2-(cyclopropylmethyl)-3-oxoisoindolin-4-yl)-3-(trifluoromethyl)quinoline-4-carboxamide] displayed an EC50 of 40 nM.

As to `CC(C)[C@H](CO)N1Cc2cccc(NC(=O)c3nc(Cl)ccc3C(F)(F)F)c2C1=O` [Compound 132, (R)-6-chloro-N-(2-(1-hydroxy-3-methylbutan-2-yl)-3-oxoisoindolin-4-yl)-3-(trifluoromethyl)picolinamide], the EC50 was 46 nM.

Regarding `Cn1cc2c(C(=O)Nc3cccc4c3C(=O)N(C(C3CC3)C3CC3)C4)cccc2n1` [Compound 133, N-(2-(dicyclopropylmethyl)-3-oxoisoindolin-4-yl)-2-methyl-2H-indazole-4-carboxamide], the EC50 was 49 nM.

`Cc1cnc2c(c1C(=O)Nc1cccc3c1C(=O)N([C@@H](C)C1CC1)C3)OCO2` [Compound 134, (S)-N-(2-(1-cyclopropylethyl)-3-oxoisoindolin-4-yl)-6-methyl-[1,3]dioxolo[4,5-b]pyridine-7-carboxamide] showed an EC50 of 59 nM.

In turn, `COc1ccc2ncc(F)c(C(=O)Nc3cccc4c3C(=O)N(CC3CC3)C4)c2n1` [Compound 135, N-(2-(cyclopropylmethyl)-3-oxoisoindolin-4-yl)-3-fluoro-6-methoxy-1,5-naphthyridine-4-carboxamide] gave an EC50 of 64 nM.

For `C[C@@H](C1CC1)N1Cc2cccc(NC(=O)c3c(Cl)cnc4c3OCO4)c2C1=O` [Compound 137, (S)-6-chloro-N-(2-(1-cyclopropylethyl)-3-oxoisoindolin-4-yl)-[1,3]dioxolo[4,5-b]pyridine-7-carboxamide], the EC50 stood at 77 nM.

Turning to `CCOc1ncccc1C(=O)Nc1cccc2c1C(=O)N([C@H](C)C(C)(C)O)C2` [Compound 138, (R)-2-ethoxy-N-(2-(3-hydroxy-3-methylbutan-2-yl)-3-oxoisoindolin-4-yl)nicotinamide], the midpoint of the response, the EC50, lay at 88 nM.

Consider `O=C(Nc1cccc2c1C(=O)N(CC1CC1)C2)c1c(Cl)cncc1Cl` [Compound 139, 3,5-dichloro-N-(2-(cyclopropylmethyl)-3-oxoisoindolin-4-yl)isonicotinamide], for which the 50% effective concentration (EC50) is 120 nM.

In turn, `C[C@@H](C1CC1)N1Cc2cccc(NC(=O)c3ccnc4c3CCC4)c2C1=O` [Compound 140, (S)-N-(2-(1-cyclopropylethyl)-3-oxoisoindolin-4-yl)-6,7-dihydro-5H-cyclopenta[b]pyridine-4-carboxamide] yielded a concentration for a half-maximal effect (EC50) of 120 nM.

Take `O=C(Nc1cccc2c1C(=O)N(C(C1CC1)C1CC1)C2)c1ccnc2[nH]ccc12` [Compound 141, N-(2-(dicyclopropylmethyl)-3-oxoisoindolin-4-yl)-1H-pyrrolo[2,3-b]pyridine-4-carboxamide]: a half-maximal response (EC50) required 140 nM.

As for `O=C(Nc1cccc2c1C(=O)N(C(C1CC1)C1CC1)C2)c1ccc(F)c2c1CCC2=O` [Compound 142, N-(2-(dicyclopropylmethyl)-3-oxoisoindolin-4-yl)-7-fluoro-1-oxo-2,3-dihydro-1H-indene-4-carboxamide], it took 140 nM to reach a half-maximal effect (EC50).

Consider `O=C(Nc1cc(Cl)cc2c1C(=O)N(CC1CC1)C2)c1ccnc2c1CCC2` [Compound 143, N-(6-chloro-2-(cyclopropylmethyl)-3-oxoisoindolin-4-yl)-6,7-dihydro-5H-cyclopenta[b]pyridine-4-carboxamide], for which the EC50 stood at 180 nM.

For the compound `O=C(Nc1cccc2c1C(=O)N(CC1CC1)C2)c1ccnc2ccc(F)cc12` [Compound 144, N-(2-(cyclopropylmethyl)-3-oxoisoindolin-4-yl)-6-fluoroquinoline-4-carboxamide], it took 190 nM to reach a half-maximal effect (EC50).

With `O=C(Nc1cccc2c1C(=O)N(C(C1CC1)C1CC1)C2)c1cccc2c1OCC2` [Compound 145, N-(2-(dicyclopropylmethyl)-3-oxoisoindolin-4-yl)-2,3-dihydrobenzofuran-7-carboxamide], the EC50 came to 260 nM.

The compound `O=C(Nc1cccc2c1C(=O)N(CC1CC1)C2)c1ccnc2c1CCC2` [Compound 146, N-(2-(cyclopropylmethyl)-3-oxoisoindolin-4-yl)-6,7-dihydro-5H-cyclopenta[b]pyridine-4-carboxamide] showed an EC50 of 390 nM.

The compound `O=C(Nc1ccc(Cl)c2c1C(=O)N(CC1CC1)C2)c1ccnc2c1CCC2` [Compound 147, N-(7-chloro-2-(cyclopropylmethyl)-3-oxoisoindolin-4-yl)-6,7-dihydro-5H-cyclopenta[b]pyridine-4-carboxamide] showed a 50% effective concentration (EC50) of 560 nM.

One may read the EC50 as the midpoint of the concentration-response curve. Read a high EC50 as lower potency in that assay.
